Data published in publication PMC12261219, “Comparative Evaluation of Thiol- and Amine-Conjugating Moieties for Endogenous Albumin Binding after Intravenous Administration” (ACS Pharmacology & Translational Science, 2025).
Several values for one entry are separate records, joined by “and”; a condition that tells them apart may be missing. Identical values can stand only once.

Tests used:
[1] = Hydrolytic stability in buffer (HPLC); format: physicochemical; conditions: for Intact compound after 25 h: 0.5 mM
Description: The samples were incubated at 20 °C and measured over 25 h. Reversed phase high-performance liquid chromatography (RP-HPLC) runs were performed using a Waters Acquity UPLC BEH C18 column (130 Å, 1.7 μm, 3 mm × 50 mm) on a Dionex Thermo Scientific UltiMate 3000 HPLC system, equipped with a HPG-3400RS binary pump and a DAD-3000 UV–vis detector. Chromatograms were evaluated at a wavelength of 220 nm. Milli-Q water (mobile phase A) and acetonitrile (mobile phase B), both containing 0.1% TFA, were used as eluents. The flow rate was consistent at 0.6 mL/min for all measurements using the following gradient: 0–0.5 min A 95:5 B, 0.5–5.5 min linear gradient to A 5:95 B, 5.5–6.5 min A 5:95 B, 6.5–9.2 min A 95:5 B. The same conditions were applied for stability measurements in 100 mM PB at pH 5.5 and 6.5 as well as in 20 mM HEPES and MOPS at pH 7.4. RP-HPLC-MS analyses of the same samples after the stability measurements were conducted on a Waters Acquity UPLC BEH C18 column (130 Å, 1.7 μm, 3 mm × 50 mm) on an Agilent 1260 Infinity II system equipped with a Flexible pump, a 1260 VWD UV–vis detector and the LC–MSD system. Chromatograms were evaluated at a wavelength of 220 nm. Milli-Q water (mobile phase A) and acetonitrile (mobile phase B), both containing 0.1% formic acid, were used as eluents. The flow rate was consistent at 0.6 mL/min for all measurements using the following gradient: 0–0.5 min A 95:5 B, 0.5–6.0 min linear gradient to A 5:95 B, 6.0–7.0 min A 5:95 B, 7.0–7.1 min linear gradient to A 95:5 B, 7.1–8.0 min A 95:5 B.

[2] = Reduction with ascorbic acid, release of oxaliplatin (HPLC); format: physicochemical; conditions: 0.5 mM, 150 mM PB, pH 7.4, 20 °C, 30 eq. ascorbic acid
Description: The samples were incubated at 20 °C and measured over 25 h. […] RP-HPLC runs were performed using a Waters Acquity UPLC HSS T3 column (100 Å, 1.8 μm, 3.0 mm × 50 mm) on a Dionex Thermo Scientific UltiMate 3000 HPLC system, equipped with a HPG-3400RS binary pump and a DAD-3000RS UV–vis detector. Chromatograms were evaluated at a wavelength of 230 nm. Milli-Q water (mobile phase A) and acetonitrile (mobile phase B), both containing 0.1% TFA, were used as eluents. The flow rate was consistent at 0.6 mL/min for all measurements using the following gradient: 0–0.5 min A 99:1 B, 0.5–5.5 min linear gradient to A 1:99 B, 5.5–6.5 min A 1:99 B, 6.5–9.2 min A 99:1 B.

albumin (mouse serum) = target: T1, albumin (mouse serum) (Mus musculus, UniProt P07724); test: SEC-ICP-MS albumin binding in mouse serum; format: in vitro ADME; conditions: for Pt195 in HMWF (albumin-bound) / Pt195 in LMWF: 100 µM, 37 °C
T1 construct: The serum was separated by centrifugation (two times 10 min at 900 g) after 10–20 min clotting at room temperature; from tissue; host or cells: serum of Balb/c mice
T1 sequence (P07724 25-608): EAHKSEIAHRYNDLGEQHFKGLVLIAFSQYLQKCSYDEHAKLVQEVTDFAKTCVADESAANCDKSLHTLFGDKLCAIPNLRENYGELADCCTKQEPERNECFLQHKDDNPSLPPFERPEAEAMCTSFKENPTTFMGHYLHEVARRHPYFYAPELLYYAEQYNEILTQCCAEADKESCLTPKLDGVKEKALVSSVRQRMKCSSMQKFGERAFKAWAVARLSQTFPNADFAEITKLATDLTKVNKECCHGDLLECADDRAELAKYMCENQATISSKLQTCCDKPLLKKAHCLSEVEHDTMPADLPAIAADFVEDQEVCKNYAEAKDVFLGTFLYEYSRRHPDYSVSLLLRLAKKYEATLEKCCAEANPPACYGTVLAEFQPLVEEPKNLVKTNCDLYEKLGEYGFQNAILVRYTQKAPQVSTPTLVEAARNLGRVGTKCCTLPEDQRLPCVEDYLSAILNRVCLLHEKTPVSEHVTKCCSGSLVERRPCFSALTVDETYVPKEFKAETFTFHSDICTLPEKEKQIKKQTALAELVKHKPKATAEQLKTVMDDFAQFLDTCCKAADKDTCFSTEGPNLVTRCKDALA
Description: Blood of Bab/c mice was collected under anesthesia via heart puncture. […] Human serum was purchased from Sigma-Aldrich. In order to guarantee a stable pH, all sera were buffered with 150 mM phosphate to pH 7.4 by dissolving the necessary amounts of Na2HPO4 and NaH2PO4 directly in the serum. […] The samples were then incubated in the autosampler at 37 °C and analyzed every hour for 4 or 5 h and after 24 h. Between each sample a pure water blank was measured. For measurements with 10 min intervals the same procedure was followed, but the blank measurements were omitted. For SEC-ICP-MS measurements an Agilent 1260 Infinity system coupled to an Agilent 7800 ICP-HRMS equipped with a dynamic reaction cell was used. Oxygen (purity 5.5, Messer Austria GmbH, Gumpoldskirchen, Austria) was used as reaction gas.

IgG = test: SEC-ICP-MS with single serum protein solution: IgG; format: binding, human; conditions: 200 μM IgG, 100 μM compound, 100 mM PB pH 7.4, 37 °C, 2 h
Description: (§1) All investigated proteins were purchased from commercial suppliers: Albumin (Sigma-Aldrich, A8763), IgG (Athens Research, 16–16–090707), α1-antitrypsin (Sigma-Aldrich, A6150) and apotransferrin (Sigma-Aldrich, T1147). […] The compound stocks were diluted into the protein solution to reach a final concentration of 100 μM (27 μL protein and 3 μL compound). The samples were incubated at 37 °C for 2 h and analyzed as described for the SEC-ICP-MS studies (Tables S6 and S7).

α1-antitrypsin = target: T2, α1-antitrypsin (Homo sapiens, UniProt P01009); test: SEC-ICP-MS with single serum protein solution: α1-antitrypsin; format: binding; conditions: 200 μM α1-antitrypsin, 100 μM compound, 100 mM PB pH 7.4, 37 °C, 2 h
T2 construct: purchased Sigma-Aldrich A6150
T2 sequence (P01009 25-418): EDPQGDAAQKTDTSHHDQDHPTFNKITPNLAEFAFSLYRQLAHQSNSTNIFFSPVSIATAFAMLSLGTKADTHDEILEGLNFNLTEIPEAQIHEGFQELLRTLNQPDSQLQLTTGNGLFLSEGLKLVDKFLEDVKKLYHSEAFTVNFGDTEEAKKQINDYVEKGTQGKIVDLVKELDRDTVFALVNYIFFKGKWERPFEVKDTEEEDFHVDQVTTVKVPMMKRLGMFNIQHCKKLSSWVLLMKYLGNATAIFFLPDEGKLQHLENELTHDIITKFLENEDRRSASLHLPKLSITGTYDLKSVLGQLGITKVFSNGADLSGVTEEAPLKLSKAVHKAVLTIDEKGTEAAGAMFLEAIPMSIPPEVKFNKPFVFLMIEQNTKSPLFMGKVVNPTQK
Description: as §1

[3] = Serum pharmacokinetics (platinum, ICP-MS) in CT26-bearing Balb/c mice; conditions: serum platinum; for Cmax: measured at tmax=0.08 h; for Cmax / CL: single i.v. dose 4.42 mg/kg Pt; for Percentage of AUCPt_0-∞ extrapolated from tlast to infinity: tlast=24 h; for Half-life: terminal half-life; for Half-life / Vz: i.v.; for CL: total body clearance; for Vz: volume of distribution based on the terminal phase
Description: CT26 cells (5 × 10^5 in 50 μL serum-free medium) were injected subcutaneously (s.c.) into the right flank of male Balb/c mice. […] The blood, tumor and organ collection followed the study design in Figure A. Briefly, to assess serum platinum levels, blood was collected after 5 min, 30 min, 5 h and 24 h (2 mice per time point) via the facial vein. The serum was separated by centrifugation (two times 10 min at 900 g) after 10 min clotting at room temperature. […] All collected samples were stored at −20 °C and further processed for platinum measurements via ICP-MS as follows: HNO3 (67–69%, suprapur for trace metal analysis, NORMATOM; Distributor: VWR international, Austria) and conc. H2O2 suprapur (Merck, 30%) were used without further purification. Digestion of tissue (approximately 15–30 mg gravimetrically weighted) was performed with 2 mL of approximately 20% HNO3 and 100 μL H2O2 using an open vessel graphite digestion system (coated graphite heating plate, coated sample holder-top for 25 mL vials, PFA vials and PFA lids; Labter, ODLAB; Distributor: AHF Analysentechnik AG; Germany). Digested samples were diluted in Milli-Q water (18.2 MΩ cm, Milli-Q Advantage, Darmstadt, Germany). For the ICP-MS analysis, platinum and rhenium standards were derived from CPI International (Amsterdam, The Netherlands). The total platinum content was determined with a quadrupole-based Agilent 7800 ICP-MS instrument (Agilent Technologies, Tokyo, Japan) equipped with the Agilent SPS 4 autosampler (Agilent Technologies, Tokyo, Japan) and a MicroMist nebulizer at a sample uptake rate of approximately 0.2 mL/min. An RF power of 1550 W was used as well as nickel cones. Argon was used as plasma gas (15 L/min) and as carrier gas (∼1.1 L/min). The dwell time was set to 0.1 s and the measurements were performed in 6 replicates with 100 sweeps. Rhenium served as internal standard for platinum. The Agilent MassHunter software package (Workstation Software, version C.01.04) was used for data processing.
As platinum was measured in serum, equimolar administered doses were adjusted to correspond to platinum (0.0227 mmol, 4.42 mg platinum). The area under the “concentration”–time curve (AUC) was determined from time 0 to infinity (AUCPt_0‑∞) and from time 0 to 24 h (AUCPt_0–24, based on the last observed sample at 24 h; linear-log trapezoidal calculation method). The terminal slope (λ z ) was determined based on the last two (out of four) measurements (times 5 h and 24 h).

[4] = pH 7.4, 10 min intervals, 0 min
[5] = pH 7.4, 10 min intervals, 10 min
[6] = pH 7.4, 10 min intervals, 20 min
[7] = pH 7.4, 10 min intervals, 30 min
[8] = pH 7.4, 10 min intervals, 40 min
[9] = pH 7.4, 10 min intervals, 50 min
[10] = pH 7.4, 10 min intervals, 60 min

Compound	Intact compound after 25 h ([1]; 20 mM HEPES, pH 7.4, 20 °C)	Intact compound after 25 h ([1]; 20 mM MOPS, pH 7.4, 20 °C)	Intact compound after 25 h ([1]; 100 mM PB, pH 5.5, 20 °C)	Intact compound after 25 h ([1]; 100 mM PB, pH 6.5, 20 °C)	Intact compound after 25 h ([1]; 100 mM PB, pH 7.4, 20 °C) [%]	Oxaliplatin detected (released) after 25 h [2] [%]	Pt195 in HMWF (albumin-bound) (albumin (mouse serum); [4]) [%]	Pt195 in LMWF (albumin (mouse serum); [4]) [%]	Pt195 in HMWF (albumin-bound) (albumin (mouse serum); [5])	Pt195 in LMWF (albumin (mouse serum); [5]) [%]	Pt195 in HMWF (albumin-bound) (albumin (mouse serum); [6]) [%]	Pt195 in LMWF (albumin (mouse serum); [6]) [%]	Pt195 in HMWF (albumin-bound) (albumin (mouse serum); [7]) [%]	Pt195 in LMWF (albumin (mouse serum); [7]) [%]	Pt195 in HMWF (albumin-bound) (albumin (mouse serum); [8]) [%]	Pt195 in LMWF (albumin (mouse serum); [8]) [%]	Pt195 in HMWF (albumin-bound) (albumin (mouse serum); [9]) [%]	Pt195 in LMWF (albumin (mouse serum); [9]) [%]	Pt195 in HMWF (albumin-bound) (albumin (mouse serum); [10]) [%]	Pt195 in LMWF (albumin (mouse serum); [10]) [%]	also measured
CC(=O)[O][Pt-2]12([O]C(=O)NCCOCCOCCOCCOC(=O)C3=CCCCC3S(=O)(=O)Nc3ccc(F)cc3F)([NH2+]C3CCCCC3[NH2+]1)[O]C(=O)C(=O)[O]2 (mixture of isomers) [DFSA-Ox-OAc, (OC-6–34)-Acetato[(1R,2R)-1,2-cyclohexane-1,2-diamino][(1-(6-(N-(2,4-difluorophenyl)-sulfamoyl)-cyclohex-1-en-1-yl)-1-oxo-2,5,8,11-tetraoxatridecan-13-yl)-carbamato]-oxalato platinum(IV)]	stable	stable	stable	stable	97	10	2	98	18%	82	32	68	43	57	52	48	58	42	63	37	Hydrolytic stability in all tested conditions ([1]; PB pH 5.5, 6.5, 7.4, HEPES and MOPS pH 7.4, 20 °C, 25 h): stable; Pt195 in LMWF (albumin (mouse serum); pH 7.4, 1 h intervals, 0 h): 99%; Pt195 in HMWF (albumin-bound) (albumin (mouse serum); pH 7.4, 1 h intervals, 1 h): 65%; Pt195 in LMWF (albumin (mouse serum); pH 7.4, 1 h intervals, 1 h): 35%; Pt195 in HMWF (albumin-bound) (albumin (mouse serum); pH 7.4, 1 h intervals, 2 h): 78% and ~80%; Pt195 in LMWF (albumin (mouse serum); pH 7.4, 1 h intervals, 2 h): 22%; Pt195 in HMWF (albumin-bound) (albumin (mouse serum); pH 7.4, 1 h intervals, 3 h): 82%; Pt195 in LMWF (albumin (mouse serum); pH 7.4, 1 h intervals, 3 h): 18%; Pt195 in HMWF (albumin-bound) (albumin (mouse serum); pH 7.4, 1 h intervals, 4 h): 82%; Pt195 in LMWF (albumin (mouse serum); pH 7.4, 1 h intervals, 4 h): 18%; Pt195 in HMWF (albumin-bound) (albumin (mouse serum); pH 7.4, 1 h intervals, 24 h): 70%; Pt195 in LMWF (albumin (mouse serum); pH 7.4, 1 h intervals, 24 h): 30%; Maximum albumin binding (albumin (mouse serum); reached after several hours): 82%; Platinum in the HMWF (protein-bound) (IgG): < 5%; Platinum in the HMWF (protein-bound) (α1-antitrypsin): 20%; Cmax [3]: 4.61 mg/kg; Percentage of AUCPt_0-∞ extrapolated from tlast to infinity [3]: 45.6%; Half-life [3]: 21.9 h; CL [3]: 0.0685 kg/h/kg; Vz [3]: 2.17 kg/kg
CC(=O)[O][Pt-2]12([O]C(=O)NCCOCCOCCOCCOCCN3C(=O)C=CC3=O)([NH2+][C@@H]3CCCC[C@H]3[NH2+]1)[O]C(=O)C(=O)[O]2 [Mal-Ox-OAc, (OC-6–34)-Acetato[(1R,2R)-1,2-cyclohexane-1,2-diamino][ (14-(2,5-dioxo-2,5-dihydro-1H-pyrrol-1-yl)-3,6,9,12-tetraoxatetradecyl)-carbamato]-oxalato platinum(IV)]	56% and ~60%	58% and ~60%	96%	80%	23	18	36	64	58% and ~60%	42	68	32	74	26	78	22	79	21	80	20	Pt195 in LMWF (albumin (mouse serum); pH 7.4, 1 h intervals, 0 h): 66%; Pt195 in HMWF (albumin-bound) (albumin (mouse serum); pH 7.4, 1 h intervals, 1 h): 75%; Pt195 in LMWF (albumin (mouse serum); pH 7.4, 1 h intervals, 1 h): 25%; Pt195 in HMWF (albumin-bound) (albumin (mouse serum); pH 7.4, 1 h intervals, 2 h): 74%; Pt195 in LMWF (albumin (mouse serum); pH 7.4, 1 h intervals, 2 h): 26%; Pt195 in HMWF (albumin-bound) (albumin (mouse serum); pH 7.4, 1 h intervals, 3 h): 74%; Pt195 in LMWF (albumin (mouse serum); pH 7.4, 1 h intervals, 3 h): 26%; Pt195 in HMWF (albumin-bound) (albumin (mouse serum); pH 7.4, 1 h intervals, 4 h): 74%; Pt195 in LMWF (albumin (mouse serum); pH 7.4, 1 h intervals, 4 h): 26%; Pt195 in HMWF (albumin-bound) (albumin (mouse serum); pH 7.4, 1 h intervals, 24 h): 75%; Pt195 in LMWF (albumin (mouse serum); pH 7.4, 1 h intervals, 24 h): 25%; Platinum in the HMWF (protein-bound) (IgG): less than 20%; Platinum in the HMWF (protein-bound) (α1-antitrypsin): ~30%; Cmax [3]: 35.6 mg/kg; Percentage of AUCPt_0-∞ extrapolated from tlast to infinity [3]: 27.7%; Half-life [3]: 12.2 h; CL [3]: 0.00892 kg/h/kg; Vz [3]: 0.157 kg/kg
